How the values were obtained:
[1] = system: intact cells in hippocampus and cortex; experiment: Ex.8 neuroprotective HIE rat model: intact cell counting; type: in vivo
Experimental: Newborn rat pups were assigned to one of the following 14 groups from postnatal day 4 (FIG. 23(A)): Sham group (n=12), Vehicle group (n=17), 5 mg/kg/day E4 (n=13), 10 mg/kg/day E4 (n=10), 5 mg/kg/day E4+1.6 mg/kg/day PROG (n=11), 10 mg/kg/day E4+1.6 mg/kg/day PROG (n=11), 5 mg/kg/day E4+16 mg/kg/day PROG (n=11), 10 mg/kg/day E4+16 mg/kg/day PROG (n=11), 5 mg/kg/day E4+136 ng//kg/day E2 (n=11), 10 mg/kg/day E4+136 ng/kg/day E2 (n=11), 5 mg/kg/day E4+1.6 mg/kg/day PROG+136 ng/kg/day (n=13) E2, 10 mg/kg/day E4+1.6 mg/kg/day PROG+136 ng/kg/day E2 (n=16), 5 mg/kg/day E4+16 mg/kg/day PROG+136 ng/kg/day E2 (n=11), 10 mg/kg/day E4+16 mg/kg/day PROG+136 ng/kg/day groups (n=13). Intraperitoneal injections of the pups from study groups were performed from postnatal day 4 to postnatal day 7 inclusively. At day 7, 30 minutes after last injection, animals were anesthetized with isoflurane (induction, 3.0%; maintenance, 1.5%), and the rat pups from vehicle and all the other groups, except the sham group, passed through surgery encompassing left common carotid artery double ligation and cut. After the procedure, the pups were returned to their dams and were allowed to recover for 1 hour. The pups were then placed in the humidified hypoxic in vivo cabinet (CoyLab, Grass Lake, Mich., USA). Hypoxia was produced by the inhalation of 11%-8% of oxygen balanced by nitrogen at decreased concentration of oxygen for 20 minutes, followed by inhalation of 8% oxygen and 92% nitrogen at constant concentration for 35 minutes. All the manipulations were performed at 37° C. The Sham group went through similar procedures without left common carotid artery ligation followed by neither hypoxia nor injection. […]
Intact cell counting was performed on hematoxylin-eosin-stained sections of the rat pups brains at magnification 400× in 3 fields of the respective brain area. […] The sections were analyzed with the aid of a microscope (Olympus BX51, Olympus, Tokyo, Japan), an image scanner (DotSlide Digital Virtual Microscopy, Olympus, Germany) and ImageJ software (NIH, US). […]

[2] = system: Microtubule-associated protein 2 (MAP2); experiment: Ex.8 therapeutic HIE rat model: MAP2 staining; type: in vivo
Experimental: To study the therapeutic effect of estetrol, newborn rat pups were assigned to one of the following 14 groups at postnatal day 7 (FIG. 23(B)): Sham group (n=12), Vehicle (n=15), 5 mg/kg/day E4 (n=11), 10 mg/kg/day E4 (n=11), 5 mg/kg/day E4+1.6 mg/kg/day PROG (n=11), 10 mg/kg/day E4+1.6 mg/kg/day PROG (n=11), 5 mg/kg/day E4+16 mg/kg/day PROG (n=11), 10 mg/kg/day E4+16 mg/kg/day PROG (n=13), 5 mg/kg/day E4+136 ng//kg/day E2 (n=11), 10 mg/kg/day E4+136 ng/kg/day E2 (n=11), 5 mg/kg/day E4+1.6 mg/kg/day PROG+136 ng/kg/day E2 (n=12), 10 mg/kg/day E4+1.6 mg/kg/day PROG+136 ng/kg/day E2 (n=11), 5 mg/kg/day E4+16 mg/kg/day PROG+136 ng/kg/day E2 (n=11), 10 mg/kg/day E4+16 mg/kg/day PROG+136 ng/kg/day (n=12) groups. […] After surgery, the pups were returned to their dams and allowed to recover for 1 hour. The pups were then placed in a humidified hypoxic in vivo cabinet (CoyLab). […]
The brain sections were processed for immunohistochemical detection of neuronal cytoskeletal disruption. […] Samples were analyzed with the aid of an image scanner (Nanozoomer Virtual Microscopy, Hamamatsu, Tokyo, Japan) and the ImageJ software (NIH, US). The positive areas in the ipsilateral and contralateral hemispheres were measured. The ratio of the MAP2 positive areas was calculated as the MAP2 positive area of the ipsilateral hemisphere divided by the MAP2 positive area of the contralateral hemisphere. […]

`C[C@]12CC[C@@H]3c4ccc(O)cc4CC[C@H]3[C@@H]1[C@@H](O)[C@@H](O)[C@@H]2O` [E4, 1,3,5(10)-estratrien-3,15α,16α,17β-tetrol] was tested. Which “number of intact cells per visual field” value ([1]; 5 mg/kg/day E4, SGZ) did it give?
The value was 72.10±5.93.

And the “number of intact cells per visual field” value ([1]; 10 mg/kg/day E4, DG)?
Its value is 227.30±14.18.

What about the “number of intact cells per visual field” value ([1]; 10 mg/kg/day E4, SGZ) of the same compound?
The value was 86.10±5.84.

And the “MAP-2 positive area ratio” value ([2]; 5 mg/kg/day E4)?
The value was 0.98±0.02.

What about the “MAP-2 positive area ratio” value ([2]; 10 mg/kg/day E4) of the same compound?
Its value is 0.97±0.04.
